Data published in paper PMC6272208, “2-Keto-D-Gluconate-Yielding Membrane-Bound D-Glucose Dehydrogenase from Arthrobacter globiformis C224: Purification and Characterization” (Molecules, 2015).
Where a name gives a salt, the structure may show the parent alone.

Tests used:
Assay type in all cases: biochemical
[1] = test system: T1, membrane-bound D-glucose dehydrogenase (GlcDH) from Arthrobacter globiformis C224; experiment: single-substrate kinetics, Lineweaver-Burk; settings: pH 5.0 (Table 5); general assay uses ferricyanide as electron acceptor in McIlvaine buffer, stated there as pH 3.0
T1 construct: gene gcd; native, purified from membrane fraction of C224 (Triton X-114, precipitations, hydroxylapatite); 87 kDa, single SDS-PAGE band, no subunits
Text: single-substrate kinetics, Lineweaver-Burk on membrane-bound D-glucose dehydrogenase (GlcDH) from Arthrobacter globiformis […]

[2] = test system: T1, membrane-bound D-glucose dehydrogenase (GlcDH) from Arthrobacter globiformis C224; experiment: dual-substrate initial velocity kinetics (ping-pong); settings: artificial electron acceptor; glucose as co-substrate (5-80 mM), PMS 50-200 µM
[3] = target: T1, membrane-bound D-glucose dehydrogenase (GlcDH) from Arthrobacter globiformis C224; experiment: steady-state product inhibition kinetics, Lineweaver-Burk; settings: competitive towards PMS; PMS varied at 33 mM glucose, gluconic acid 0-200 mM; read-out: inhibition constant

SMILES	Km [1] [µM]	other results
OC1OC[C@@H](O)[C@H](O)[C@H]1O (stereo partly drawn) [D-xylose]	340 ± 20	–
C[n+]1c2ccccc2nc2ccccc21 [N-methylphenazonium methyl sulfate]	–	Km [2]: 400 µM
O=C(O)[C@H](O)[C@@H](O)[C@H](O)[C@H](O)CO [gluconic acid]	–	Ki [3]: 11.4 mM

Now from value to compound, other results behind:

Km [1] [µM]	SMILES	other results
460 ± 20	OC[C@H]1OC(O)[C@H](O)[C@@H](O)[C@H]1O (stereo partly drawn) [D-galactose]	–
210 ± 10	OC[C@H]1OC(O)[C@H](O)[C@@H](O)[C@@H]1O (stereo partly drawn) [D-glucose]	–
590 ± 30	OC[C@H]1O[C@H](O[C@H]2[C@H](O)[C@@H](O)C(O)O[C@@H]2CO)[C@H](O)[C@@H](O)[C@@H]1O (stereo partly drawn) [maltose]	–
